Assay results as given in US20210332396A1, “GENETIC ELEMENTS IN ENTEROCOCCUS SPP. TO PRODUCE DOPAMINE” (Iowa State University Research Foundation, Inc., priority 2018, published 2021).

Tests used:
E. faecium strain ML1082 = test: Inhibition of dopamine production of strain ML1082 by Carbidopa in sSIM; format: cell-based, Enterococcus faecium
Description: To further verify the strains were producing dopamine from L-DOPA, Carbidopa, an inhibitor of dopamine production through L-DOPA decarboxylation, was added to sSIM. […] A functional approximation of the ICso for dopamine was calculated to be 1.53E^−3. The IC50 was similar to the L-DOPA concentration of the broth, 1.26 mM, a finding that may indicate a competitive inhibitory mechanism for the bacterial enzyme.

[1] = cited from earlier work

In the case of `C[C@@](Cc1ccc(O)c(O)c1)(NN)C(=O)O` [Carbidopa], the “inhibition of dopamine production (in words)” value (E. faecium strain ML1082) was “dose-dependent inhibition”.

In the case of `NCCc1ccc(O)c(O)c1` [dopamine], the half-life of auto-oxidation ([1]; pH of 5.6) is listed as 324 h, the “reaction rate for the auto-oxidation (k)” value ([1]; pH of 5.6) is listed as 0.000000591 s⁻¹ and the half-life of oxidation ([1]; pH of 7.4) is listed as 4.95 min. For the same compound, the oxidation rate ([1]; pH of 7.4) was 0.000586 s⁻¹.
